Measurements published in PMC6219668 (Oncotarget, 2018).

Tested on: panel of nearly 500 cancer cell lines
Experiment: Cancer Cell Line Encyclopedia profiling, 3-day CellTiter-Glo
Format: cell-based
Details: Homo sapiens

CN(C)C(=O)c1cc2cnc(Nc3ccc(N4CCNCC4)cn3)nc2n1C1CCCC1 [Ribociclib, 7-cyclopentyl-2-(5-piperazin-1-yl-pyridin-2-ylamino)-7H-pyrrolo[2,3-d]pyrimidine-6-carboxylic acid dimethylamide]
EC50 (HPAF-II): > 8 µM | IC50 (HPAF-II): > 8 µM | EC50 (HSC-2): > 8 µM | IC50 (HSC-2): > 8 µM | EC50 (HT1197): 1.84 µM | IC50 (HT1197): > 8 µM | EC50 (HT-29): > 8 µM | IC50 (HT-29): 5.83 µM | EC50 (HT-144): > 8 µM | IC50 (HT-144): > 8 µM | EC50 (HT-1080): 2.73 µM | IC50 (HT-1080): > 8 µM | EC50 (HepG2): 0.231 µM | IC50 (HepG2): > 8 µM | EC50 (Hs 294T): 4.66 µM | IC50 (Hs 294T): > 8 µM | EC50 (Hs 683): > 8 µM | IC50 (Hs 683): > 8 µM | EC50 (Hs 695T): > 8 µM | IC50 (Hs 695T): > 8 µM | EC50 (Hs746T): 0.436 µM | IC50 (Hs746T): > 8 µM | EC50 (Hs-578T): > 8 µM | IC50 (Hs-578T): > 8 µM | EC50 (HuCCT-1): > 8 µM | IC50 (HuCCT-1): > 8 µM | EC50 (HuH-1): > 8 µM | IC50 (HuH-1): > 8 µM | EC50 (HuP-T3): > 8 µM | IC50 (HuP-T3): > 8 µM | EC50 (HuP-T4): 2.24 µM | IC50 (HuP-T4): 4.3 µM | EC50 (HuT78): > 8 µM | IC50 (HuT78): > 8 µM | EC50 (IGR-37): 0.207 µM | IC50 (IGR-37): > 8 µM | EC50 (IGROV-1): > 8 µM | IC50 (IGROV-1): > 8 µM | EC50 (IM95): > 8 µM | IC50 (IM95): > 8 µM | EC50 (IMR-32): 0.287 µM | IC50 (IMR-32): 1.56 µM | EC50 (JVM-3): > 8 µM | IC50 (JVM-3): > 8 µM | EC50 (Jurkat): 3.75 µM | IC50 (Jurkat): 3.69 µM | EC50 (KALS-1): > 8 µM | IC50 (KALS-1): > 8 µM | EC50 (KARPAS-299): 0.878 µM | IC50 (KARPAS-299): > 8 µM | EC50 (KARPAS-422): > 8 µM | IC50 (KARPAS-422): > 8 µM | EC50 (KCL-22): > 8 µM | IC50 (KCL-22): 6.12 µM | EC50 (KMS-11): 0.233 µM | IC50 (KMS-11): > 8 µM | EC50 (KMS-12-BM): > 8 µM | IC50 (KMS-12-BM): > 8 µM | EC50 (KNS-42): 0.134 µM | IC50 (KNS-42): > 8 µM | EC50 (KNS-62): 0.934 µM | IC50 (KNS-62): > 8 µM | IC50 (KU812): > 8 µM | EC50 (KYSE-30): > 8 µM | IC50 (KYSE-30): > 8 µM | EC50 (KYSE-70): 1.2 µM | IC50 (KYSE-70): 5.61 µM | EC50 (KYSE-140): 0.436 µM | IC50 (KYSE-140): > 8 µM | EC50 (KYSE-150): 2.92 µM | IC50 (KYSE-150): > 8 µM | EC50 (KYSE-180): 0.507 µM | IC50 (KYSE-180): > 8 µM | EC50 (KYSE-410): > 8 µM | IC50 (KYSE-410): > 8 µM | EC50 (KYSE-450): > 8 µM | IC50 (KYSE-450): > 8 µM | EC50 (KYSE-510): > 8 µM | IC50 (KYSE-510): > 8 µM | EC50 (KYSE-520): 6.06 µM | IC50 (KYSE-520): > 8 µM | EC50 (L-363): 1.04 µM | IC50 (L-363): > 8 µM | EC50 (L-428): 2.03 µM | IC50 (L-428): > 8 µM | EC50 (LCLC-103H): > 8 µM | IC50 (LCLC-103H): > 8 µM | EC50 (LN-18): > 8 µM | IC50 (LN-18): > 8 µM | EC50 (LN-229): > 8 µM | IC50 (LN-229): > 8 µM | EC50 (LOX IMVI): 2.92 µM | IC50 (LOX IMVI): > 8 µM | EC50 (LS-123): > 8 µM | IC50 (LS-123): > 8 µM | EC50 (LS-411N): 3.42 µM | IC50 (LS-411N): 1.71 µM | EC50 (LS-513): > 8 µM | IC50 (LS-513): > 8 µM | EC50 (Lu-99): 0.564 µM | IC50 (Lu-99): 3.69 µM | EC50 (M059J): > 8 µM | IC50 (M059J): > 8 µM | EC50 (MC116): > 8 µM | IC50 (MC116): > 8 µM | EC50 (MCF7): 0.343 µM | IC50 (MCF7): 1.37 µM | EC50 (MDA-MB-157): > 8 µM | IC50 (MDA-MB-157): > 8 µM | EC50 (MDA-MB-175-VII): > 8 µM | IC50 (MDA-MB-175-VII): > 8 µM | EC50 (MDA-MB-415): > 8 µM | IC50 (MDA-MB-415): > 8 µM | EC50 (MDA-MB-435S): 0.207 µM | IC50 (MDA-MB-435S): 0.775 µM | EC50 (MDA-MB-436): > 8 µM | IC50 (MDA-MB-436): > 8 µM | EC50 (MDA-MB-453): 0.166 µM | IC50 (MDA-MB-453): > 8 µM | EC50 (MDA-MB-468): 0.347 µM | IC50 (MDA-MB-468): > 8 µM | EC50 (MEC1): > 8 µM | IC50 (MEC1): > 8 µM | EC50 (MEG-01): 0.392 µM | IC50 (MEG-01): > 8 µM | EC50 (MES-SA): 0.839 µM | IC50 (MES-SA): > 8 µM | EC50 (MFE-280): > 8 µM | IC50 (MFE-280): > 8 µM | EC50 (MFE-296): 0.163 µM | IC50 (MFE-296): 0.848 µM | EC50 (MG-63): 0.239 µM | IC50 (MG-63): > 8 µM | EC50 (MIA PaCa-2): 2.36 µM | IC50 (MIA PaCa-2): 5.57 µM | EC50 (MINO): 0.266 µM | IC50 (MINO): 0.456 µM | EC50 (MKN-7): > 8 µM | IC50 (MKN-7): > 8 µM | EC50 (MKN-45): 0.23 µM | IC50 (MKN-45): > 8 µM | EC50 (MKN-74): > 8 µM | IC50 (MKN-74): > 8 µM | EC50 (MOLP-8): > 8 µM | IC50 (MOLP-8): > 8 µM | EC50 (MSTO-211H): > 8 µM | IC50 (MSTO-211H): > 8 µM | EC50 (Malme-3M): 0.00254 µM | IC50 (Malme-3M): > 8 µM | EC50 (MeWo): 2.57 µM | IC50 (MeWo): 2.57 µM | EC50 (NCI-H23): > 8 µM | IC50 (NCI-H23): > 8 µM | EC50 (NCI-H28): > 8 µM | IC50 (NCI-H28): 6.1 µM | EC50 (NCI-H211): 0.368 µM | IC50 (NCI-H211): > 8 µM | EC50 (NCI-H226): > 8 µM | IC50 (NCI-H226): > 8 µM | EC50 (NCI-H358): 6.86 µM | IC50 (NCI-H358): > 8 µM | EC50 (NCI-H441): 0.337 µM | IC50 (NCI-H441): > 8 µM | EC50 (NCI-H460): > 8 µM | IC50 (NCI-H460): > 8 µM | EC50 (NCI-H520): > 8 µM | IC50 (NCI-H520): > 8 µM | EC50 (NCI-H522): > 8 µM | IC50 (NCI-H522): > 8 µM | EC50 (NCI-H647): > 8 µM | IC50 (NCI-H647): > 8 µM | EC50 (NCI-H650): 2.43 µM | IC50 (NCI-H650): > 8 µM | EC50 (NCI-H661): > 8 µM | IC50 (NCI-H661): > 8 µM | EC50 (NCI-H727): 1.06 µM | IC50 (NCI-H727): > 8 µM | EC50 (NCI-H747): > 8 µM | IC50 (NCI-H747): > 8 µM | EC50 (NCI-H810): > 8 µM | IC50 (NCI-H810): > 8 µM | EC50 (NCI-H1048): > 8 µM | IC50 (NCI-H1048): > 8 µM | EC50 (NCI-H1092): > 8 µM | IC50 (NCI-H1092): > 8 µM | EC50 (NCI-H1155): 2.66 µM | IC50 (NCI-H1155): > 8 µM | EC50 (NCI-H1299): 1.51 µM | IC50 (NCI-H1299): > 8 µM | EC50 (NCI-H1355): 0.471 µM | IC50 (NCI-H1355): > 8 µM | EC50 (NCI-H1373): > 8 µM | IC50 (NCI-H1373): > 8 µM | EC50 (NCI-H1563): > 8 µM | IC50 (NCI-H1563): > 8 µM | EC50 (NCI-H1573): > 8 µM | IC50 (NCI-H1573): > 8 µM | EC50 (NCI-H1581): > 8 µM | IC50 (NCI-H1581): > 8 µM | EC50 (NCI-H1648): > 8 µM | IC50 (NCI-H1648): > 8 µM | EC50 (NCI-H1650): > 8 µM | IC50 (NCI-H1650): > 8 µM | EC50 (NCI-H1651): > 8 µM | IC50 (NCI-H1651): > 8 µM | EC50 (NCI-H1666): > 8 µM
